Laboratory results: patent US20230277698A1, “SILICON-CONTAINING LIGAND COMPOUNDS” (Technische Universität München, priority 2020, published 2023)

Assays:
[1] = target: human serum albumin (HSA) (Homo sapiens, UniProt P02768); test: HSA binding by high performance affinity chromatography (HiPAC); type: in vitro ADME; parameters: purchased Daicel, Tokyo, Japan H13H-2433; conditions: lutetium-complexed; Chiralpak HSA column
Description: HSA binding of the PSMA-addressing ligands was determined according to a previously published procedure via HPLC (Valko, K.; Nunhuck, S.; Bevan, C.; Abraham, M. H.; Reynolds, D. P., Fast gradient HPLC method to determine compounds binding to human serum albumin. Relationships with octanol/water and immobilized artificial membrane lipophilicity. J Pharm Sci. 2003, 92, 2236-2248). A Chiralpak HSA column (50×3 mm, 5 μm, H13H-2433, Daicel, Tokyo, Japan) was used at a constant flow rate of 0.5 mL/min at rt. Mobile phase A was a freshly prepared 50 mM aqueous solution of NH4OAc (pH 6.9) and mobile phase B was isopropanol (HPLC grade, VWR). The applied gradient for all experiments was 100% A (0 to 3 min), followed by 80% A (3 to 40 min). Prior to the experiment, the column was calibrated using nine reference substances with a HSA binding, known from literature, in the range of 13 to 99% (Valko, K.; Nunhuck, S.; Bevan, C.; Abraham, M. H.; Reynolds, D. P., J Pharm Sci. 2003, 92, 2236-2248; Yamazaki, K.; Kanaoka, M., Computational prediction of the plasma protein-binding percent of diverse pharmaceutical compounds. J Pharm Sci. 2004, 93, 1480-1494). All substances, including the examined PSMA ligands, were dissolved in a 1:1 mixture (v/v) of isopropanol and a 50 mM aqueous solution of NH4OAc (pH 6.9) with a final concentration of 0.5 mg/mL. Non-linear regression was established with the OriginPro 2016G software (Northampton, United States).
FIG. 1 is an exemplary sigmoidal plot, showing the correlation between human serum albumin (HSA) binding of selected reference substances and retention time (tR). The underlying values of HSA binding also shown in the corresponding table and were obtained from literature (Valko, K.; Nunhuck, S.; Bevan, C.; Abraham, M. H.; Reynolds, D. P., J Pharm Sci. 2003, 92, 2236-2248; Yamazaki, K.; Kanaoka, M., J Pharm Sci. 2004, 93, 1480-1494). Log tR: logarithmic value of experimentally determined retention time. Log K HSA: logarithmic value of HSA binding values.

LNCaP cells = test: Internalization studies on LNCaP cells; type: cell-based; conditions: 177Lu-labelled, c=1.0 nM, 1 hour, 37 °C; % of reference ligand ([125I]I-BA)KuE (c=0.2 nM); corrected for non-specific binding (PMPA); mean±SD, n=3-6
Description: PSMA-positive LNCAP cells (300265; Cell Lines Service, Eppelheim, Germany) were cultivated in Dulbecco modified Eagle medium/Nutrition Mixture F-12 with Glutamax (1:1) (DMEM-F12, Biochrom, Berlin, Germany) supplemented with fetal bovine serum (10%, FBS Zellkultur, Berlin, Germany) and kept at 37° C. in a humidified CO2 atmosphere (5%). A mixture of trypsin and EDTA (0.05%, 0.02%) in PBS (Biochrom) was used in order to harvest cells. Cells were counted with a Neubauer hemocytometer (Paul Marienfeld, Lauda-Königshofen, Germany).
For internalization studies, LNCaP cells were harvested 24±2 hours before the experiment and seeded in poly-L-lysine coated 24-well plates (1.25×10^5 cells in 1 mL/well, Greiner Bio-One, Kremsmünster, Austria). After removal of the culture medium, the cells were washed once with 500 μL DMEM-F12 (5% BSA) and left to equilibrate for at least 15 min at 37° C. in 200 μL DMEM-F12 (5% BSA). Each well was treated with either 25 μL of either DMEM-F12 (5% BSA, control) or 25 μL of a 100 μM PMPA (2-(Phosphonomethyl)-pentandioic acid, Tocris Bioscience, Bristol, UK) solution in PBS, for blockade. Next, 25 μL of the radioactive-labelled PSMA inhibitor (10.0 nM in PBS) was added and the cells were incubated at 37° C. for 60 min. The experiment was terminated by placing the 24-well plate on ice for 3 min and consecutive removal of the medium. Each well was carefully washed with 250 μL of ice-cold HBSS. Both fractions from the first steps, representing the amount of free radioligand, were combined. Removal of surface bound activity was accomplished by incubation of the cells with 250 μL of ice-cold PMPA (10 μM in PBS) solution for 5 min and rinsed again with another 250 μL of ice-cold PBS. The internalized activity was determined by incubation of the cells in 250 μL 1 M aqueous NaOH for at least 10 min. The obtained fractions were combined with those of the subsequent wash step with 250 μL 1 M aqueous NaOH. Each experiment (control and blockade) was performed in triplicate. Free, surface bound and internalized activity was quantified in a γ-counter. All internalization studies were accompanied by external reference studies, using ([^125I]l-BA)KuE (c=0.2 nM), which were performed analogously. Data were corrected for non-specific binding and normalized to the specific-internalization observed for the radioiodinated reference compound.
Data is corrected for non-specific binding (10 μmol PMPA) and expressed as mean±SD (n=3-6): […]

[2] = system: LNCaP tumor-bearing CB17-SCID mice; test: Biodistribution studies 24 h p.i.; type: in vivo; conditions: 177Lu-labelled, mean±SD, n=4-5; for biodistribution: tumor: LNCaP xenograft; for biodistribution: blood: i.v. tail vein
Description: All animal experiments were conducted in accordance with general animal welfare regulations in Germany (German animal protection act, as amended on 18 May 2018, Art. 141 G v. 29.3.2017|626, approval no. 55.2-1-54-2532-71-13) and the institutional guidelines for the care and use of animals. To establish tumor xenografts, LNCaP cells (approx. 10^7 cells) were suspended in 200 μL of a 1:1 mixture (v/v) of DMEM F-12 and Matrigel (BD Biosciences, Germany), and inoculated subcutaneously onto the right shoulder of 6-8 weeks old CB17-SCID mice (Charles River, Sulzfeld, Germany). Mice were used for experiments when tumors had grown to a diameter of 5-10 mm (3-6 weeks after inoculation).
Approximately 5-10 MBq (0.1-0.2 nmol) of the radioactive-labelled PSMA inhibitors were injected into the tail vein of LNCaP tumor-bearing male CB-17 SCID mice and sacrificed after 24 h post injection. Selected organs were removed, weighted and measured in a γ-counter.
FIG. 10 and the following table show the biodistribution data 24 h p.i. of ^177Lu-labeled compounds in LNCaP tumor-bearing CB17-SCID mice. Data are expressed as mean±SD (n=4-5).

human serum albumin (HSA), sequence (P02768 25-609): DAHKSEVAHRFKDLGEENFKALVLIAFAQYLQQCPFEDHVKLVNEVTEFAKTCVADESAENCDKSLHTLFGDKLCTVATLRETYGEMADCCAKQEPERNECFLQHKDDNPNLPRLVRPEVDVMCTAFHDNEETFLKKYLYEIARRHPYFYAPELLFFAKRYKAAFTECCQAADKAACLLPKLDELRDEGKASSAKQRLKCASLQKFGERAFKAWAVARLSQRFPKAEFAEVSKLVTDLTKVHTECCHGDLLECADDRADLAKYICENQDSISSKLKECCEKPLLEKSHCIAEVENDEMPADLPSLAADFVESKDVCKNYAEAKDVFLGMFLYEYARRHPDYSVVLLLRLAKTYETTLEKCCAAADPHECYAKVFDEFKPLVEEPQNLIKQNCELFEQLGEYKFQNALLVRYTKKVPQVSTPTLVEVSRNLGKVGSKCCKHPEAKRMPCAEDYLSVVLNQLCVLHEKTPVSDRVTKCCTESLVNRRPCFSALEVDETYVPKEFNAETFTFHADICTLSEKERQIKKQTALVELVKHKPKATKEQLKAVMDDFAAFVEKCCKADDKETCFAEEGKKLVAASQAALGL

Row | SMILES | HSA-binding HiPAC [1] [%] | Internalization (% IBA) (LNCaP cells) | biodistribution: tumor [2] [% ID/g] | biodistribution: blood [2] [% ID/g] | biodistribution: bone [2] [% ID/g] | biodistribution: heart [2] [% ID/g] | biodistribution: intestine [2] [% ID/g] | biodistribution: kidneys [2] [% ID/g] | biodistribution: liver [2] [% ID/g] | biodistribution: lung [2] [% ID/g] | biodistribution: muscle [2] [% ID/g] | biodistribution: pancreas [2] [% ID/g] | biodistribution: spleen [2] [% ID/g] | biodistribution: stomach [2] [% ID/g] | biodistribution: adrenals [2] [% ID/g] | biodistribution: parotis [2] [% ID/g] | biodistribution: submandibularis [2] [% ID/g]
1 | CC(C)(C)[Si](O)(c1ccc(C(=O)NC[C@@H](NC(=O)CCCCCNC(=O)CCCNC(=O)CC[C@@H](NC(=O)CCC(NC(=O)N[C@@H](CCC(=O)O)C(=O)O)C(=O)O)C(=O)O)C(=O)NCC(=O)N[C@@H](CCCCNC(=O)CC[C@@H](C(=O)O)N2CCN(CC(=O)O)CCN(CC(=O)O)CCN(CC(=O)O)CC2)C(=O)O)cc1)C(C)(C)C (some centres unmarked) [E104-SiOH] | 85.8 | 103 ± 2 | – | – | – | – | – | – | – | – | – | – | – | – | – | – | –
2 | CC(C)(C)[Si](O)(c1ccc(C(=O)NC[C@@H](NC(=O)CC[C@@H](C(=O)O)N2CCN(CC(=O)O)CCN(CC(=O)O)CCN(CC(=O)O)CC2)C(=O)N[C@H](CCCCNC(=O)CCC(=O)NCCC[C@@H](NC(=O)CC[C@H](NC(=O)N[C@@H](CCC(=O)O)C(=O)O)C(=O)O)C(=O)O)C(=O)O)cc1)C(C)(C)C [7.3-SiOH] | 96.4 | 225 ± 23 | 7.3 ± 0.8 | 0.002 ± 0.001 | 0.01 ± 0.01 | 0.01 ± 0.01 | 0.45 ± 0.39 | 3.7 ± 1.9 | 0.08 ± 0.03 | 0.03 ± 0.01 | 0.006 ± 0.005 | 0.01 ± 0.01 | 0.21 ± 0.11 | 0.24 ± 0.36 | – | – | –
3 | CC(C)(C)[Si](F)(c1ccc(C(=O)NC[C@@H](NC(=O)CN2CCN(CC(=O)O)CCN(CC(=O)O)CCN(CC(=O)O)CC2)C(=O)N[C@H](CCCCNC(=O)CCC(=O)NCCC[C@@H](NC(=O)CC[C@H](NC(=O)N[C@@H](CCC(=O)O)C(=O)O)C(=O)O)C(=O)O)C(=O)O)cc1)C(C)(C)C [rhPSMA-10, reference compound] | 94.0 | 231 ± 57 | 10.2 ± 2.8 | 0.004 ± 0.001 | 0.02 ± 0.01 | 0.03 ± 0.01 | 0.11 ± 0.06 | 4.1 ± 2.3 | 0.28 ± 0.13 | 0.05 ± 0.01 | 0.010 ± 0.003 | 0.02 ± 0.01 | 0.22 ± 0.11 | 0.04 ± 0.01 | 0.09 ± 0.06 | – | –
4 | O=C(O)CC[C@H](NC(=O)N[C@@H](CCCCNC(=O)[C@H](Cc1ccc2ccccc2c1)NC(=O)[C@H]1CC[C@H](CNC(=O)CN2CCN(CC(=O)O)CCN(CC(=O)O)CCN(CC(=O)O)CC2)CC1)C(=O)O)C(=O)O [PSMA-617, reference compound] | 74.7 | 160 ± 2 | 7.5 ± 0.9 | 0.006 ± 0.01 | 0.03 ± 0.01 | 0.01 ± 0.01 | 0.12 ± 0.08 | 1.4 ± 0.4 | 0.12 ± 0.06 | 0.04 ± 0.01 | 0.01 ± 0.01 | 0.01 ± 0.01 | 0.08 ± 0.01 | 0.02 ± 0.01 | 0.13 ± 0.12 | – | –
5 | CC(C)(C)[Si](O)(c1ccc(C(=O)N[C@H](CCC(=O)NC[C@@H](NC(=O)CC[C@@H](C(=O)O)N2CCN(CC(=O)O)CCN(CC(=O)O)CCN(CC(=O)O)CC2)C(=O)NCCCCCC(=O)NCCC[C@@H](NC(=O)CC[C@H](NC(=O)N[C@@H](CCC(=O)O)C(=O)O)C(=O)O)C(=O)O)C(=O)O)cc1)C(C)(C)C [P105-SiOH] | 97.8 | 185 ± 4 | 6.3 ± 2.1 | 0.004 ± 0.003 | 0.02 ± 0.01 | 0.01 ± 0.01 | 0.08 ± 0.05 | 4.2 ± 2.5 | 0.37 ± 0.07 | 0.04 ± 0.01 | 0.004 ± 0.001 | 0.01 ± 0.01 | 0.31 ± 0.10 | 0.02 ± 0.01 | 0.12 ± 0.01 | 0.07 ± 0.03 | 0.03 ± 0.01
6 | CC(C)(C)[Si](O)(c1ccc(C[N+](C)(C)CC(=O)NCCC[C@@H](NC(=O)CC[C@@H](C(=O)O)N2CCN(CC(=O)O)CCN(CC(=O)O)CCN(CC(=O)O)CC2)C(=O)NCCCCCC(=O)NCCC[C@@H](NC(=O)CC[C@H](NC(=O)N[C@@H](CCC(=O)O)C(=O)O)C(=O)O)C(=O)O)cc1)C(C)(C)C [P110-SiOH] | 31.3 | 46 ± 2 | – | – | – | – | – | – | – | – | – | – | – | – | – | – | –
